32 compounds from patent US9120804B2, “8-substituted 2-amino-[1,2,4] triazolo [1, 5-A] pyrazines as Syk tryrosine kinase inhibitors and GCN2 serin kinase inhibitors” (Merck Patent GmbH, priority 2012, dated 2015) can be followed below.

The term IC50 denotes the concentration needed to halve the response being measured. A lower IC50 goes with greater potency in that assay.

Molecules are shown by their SMILES.

The target in this assay is T1, SYK (Homo sapiens, UniProt P43405).
T1 construct: 2.5 nM SYK, 400 nM Biotin-Aha-Aha-KEDPDYEWPSAKK
Briefly: SYK flash plate assay (enzyme assay). Type of assay: biochemical. In a few lines:
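Radiometric Flashplate format: biotinylated peptide substrate (400 nM) and 33P-labelled ATP (10 μM) react with 2.5 nM enzyme for 1 hour at 30 °C in Hepes buffer, pH 7.5. After EDTA quench and washing, counts are taken; staurosporine defines non-specific signal, and IC50 values are derived.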
As for `CC1(C)C(=O)Nc2cc(Nc3nc4c(N5CCc6ccccc65)nccn4n3)ccc21` [E73, 6-[8-(2,3-dihydro-indol-1-yl)-[1,2,4]triazolo[1,5-a]pyrazin-2-ylamino]-3,3-dimethyl-1,3-dihydro-indol-2-one], the IC50 was less than 100 nM. Take `CC1(C)C(=O)Nc2cc(Nc3nc4c(N5CCC[C@@H]5C(N)=O)nccn4n3)ccc21` [E22, (R)-1-[2-(3,3-dimethyl-2-oxo-2,3-dihydro-1H-indol-6-ylamino)-[1,2,4]triazolo[1,5-a]pyrazin-8-yl]-pyrrolidine-2-carboxylic acid amide]: the half-maximal inhibitory concentration (IC50) is 300 to 3000 nM.

As to `CC1(C)C(=O)Nc2cc(Nc3nc4c(-c5cc6n(n5)CCOC6)nccn4n3)ccc21` [E132, 6-[8-(6,7-Dihydro-4H-pyrazolo[5,1-c][1,4]oxazin-2-yl)-[1,2,4]triazolo[1,5-a]pyrazin-2-ylamino]-3,3-dimethyl-1,3-dihydro-indol-2-one], the IC50 was in the range of 300 to 3000 nM. `CC1(C)C(=O)Nc2cc(Nc3nc4c(-c5cnn(C6CCNCC6)c5)nccn4n3)ccc21` [E150, 3,3-dimethyl-6-[8-(1-piperidin-4-yl-1H-pyrazol-4-yl)-[1,2,4]triazolo[1,5-a]pyrazin-2-ylamino]-1,3-dihydro-indol-2-one]: the IC50 is less than 100 nM. Regarding `Cn1cc(-c2nccn3nc(Nc4ccc5c(c4)NC(=O)C54CCC4)nc23)cn1` [E8, 6′-[[8-(1-methylpyrazol-4-yl)-[1,2,4]triazolo[1,5-a]pyrazin-2-yl]amino]spiro[cyclobutane-1,3′-indoline]-2′-one], the half-inhibitory concentration (IC50) is less than 100 nM. The compound `CC1(C)CC(=O)Nc2cc(Nc3nc4c(N5CC(O)CC5c5ccccc5)nccn4n3)ccc21` (centres unmarked) [E96, 7-[8-(4-hydroxy-2-phenyl-pyrrolidin-1-yl)-[1,2,4]triazolo[1,5-a]pyrazin-2-ylamino]-4,4-dimethyl-3,4-dihydro-1H-quinolin-2-one] registered a half-maximal inhibitory concentration (IC50) of 300 to 3000 nM. `CC1(C)CCOc2cc(Nc3nc4c(N5CCC6(CC5)CNC(=O)O6)nccn4n3)ccc21` [E55, 8-[2-(4,4-dimethyl-chroman-7-ylamino)-[1,2,4]triazolo[1,5-a]pyrazin-8-yl]-1-oxa-3,8-diaza-spiro[4.5]decan-2-one] showed an IC50 of less than 100 nM. Then `CC1(C)C(=O)Nc2cc(Nc3nc4c(N5CCC6(CCNC6)C5)nccn4n3)ccc21` (centres unmarked) [E87, 6-[8-(2,7-diaza-spiro[4.4]non-2-yl)-[1,2,4]triazolo[1,5-a]pyrazin-2-ylamino]-3,3-dimethyl-1,3-dihydro-indol-2-one], with less than 100 nM. As for `CN(c1nccn2nc(Nc3ccc4c(c3)NC(=O)C4(C)C)nc12)C1CCNCC1` [E17, 3,3-dimethyl-6-[8-(methyl-piperidin-4-yl-amino)-[1,2,4]triazolo[1,5-a]pyrazin-2-ylamino]-1,3-dihydro-indol-2-one], the half-maximal inhibitory concentration (IC50) was in the range of 100 to 300 nM. Turning to `CC1(C)C(=O)Nc2cc(Nc3nc4c(N5C[C@@H](O)C[C@H]5c5ccccc5)nccn4n3)ccc21` [E29, 6-[8-((2S,4S)-4-hydroxy-2-phenyl-pyrrolidin-1-yl)-[1,2,4]triazolo[1,5-a]pyrazin-2-ylamino]-3,3-dimethyl-1,3-dihydro-indol-2-one], the half-inhibitory concentration (IC50) was 3000 to 50000 nM. For the compound `CC1(C)C(=O)Nc2cc(Nc3nc4c(N5CCc6ccc(C#N)cc6C5)nccn4n3)ccc21` [E124, 2-[2-(3,3-dimethyl-2-oxo-2,3-dihydro-1H-indol-6-ylamino)-[1,2,4]triazolo[1,5-a]pyrazin-8-yl]-1,2,3,4-tetrahydro-isoquinoline-7-carbonitrile], the half-inhibitory concentration (IC50) is less than 100 nM.

On to `COc1cc(Nc2nc3c(N4CCC(NS(C)(=O)=O)CC4)nccn3n2)cc(OC)c1` [C53, N-{1-[2-(3,5-dimethoxy-phenylamino)-[1,2,4]triazolo[1,5-a]pyrazin-8-yl]-piperidin-4-yl}-methanesulfonamide], for which the half-inhibitory concentration (IC50) lay in the range of 300 to 3000 nM. `CC1(C)C(=O)Nc2cc(Nc3nc4c(N5CC[C@@]6(CCNC6)C5)nccn4n3)ccc21` [E106, 6-[(R)-8-(2,7-diaza-spiro[4.4]non-2-yl)-[1,2,4]triazolo[1,5-a]pyrazin-2-ylamino]-3,3-dimethyl-1,3-dihydro-indol-2-one] returned a half-maximal inhibitory concentration (IC50) of less than 100 nM.

`CC1(C)C(=O)Nc2cc(Nc3nc4c(N5CCC(COC=O)C5)nccn4n3)ccc21` (centres unmarked) [E34, formic acid 1-[2-(3,3-dimethyl-2-oxo-2,3-dihydro-1H-indol-6-ylamino)-[1,2,4]triazolo[1,5-a]pyrazin-8-yl]pyrrolidin-3-ylmethyl ester] gave a 50% inhibitory concentration (IC50) of 100 to 300 nM. As to `CC1(C)C(=O)Nc2cc(Nc3nc4c(N5CC[C@]6(CC(=O)NC6=O)C5)nccn4n3)ccc21` [E18, (S)-7-[2-(3,3-dimethyl-2-oxo-2,3-dihydro-1H-indol-6-ylamino)-[1,2,4]triazolo[1,5-a]pyrazin-8-yl]-2,7-diaza-spiro[4.4]nonane-1,3-dione], the IC50 is less than 100 nM. Take `NS(=O)(=O)c1ccc(Nc2nc3c(-c4ccccc4-c4ccccc4)nccn3n2)cc1` [C15, 4-(8-Biphenyl-2-yl-[1,2,4]triazolo[1,5-a]pyrazin-2-ylamino)-benzenesulfonamide]: the IC50 fell in the range of 3000 to 50000 nM. `CC(=O)NCCNc1nccn2nc(Nc3ccc4c(c3)NC(=O)C4(C)C)nc12` [E103, N-{2-[2-(3,3-dimethyl-2-oxo-2,3-dihydro-1H-indol-6-ylamino)-[1,2,4]triazolo[1,5-a]pyrazin-8-ylamino]-ethyl}-acetamide] showed an IC50 of 300 to 3000 nM. Regarding `CCOC(=O)c1cnn2c1CN(c1nccn3nc(Nc4ccc5c(c4)NC(=O)C5(C)C)nc13)CC2` [C106, 5-[2-(3,3-dimethyl-2-oxo-2,3-dihydro-1H-indol-6-ylamino)-[1,2,4]triazolo[1,5-a]pyrazin-8-yl]-4,5,6,7-tetrahydro-pyrazolo[1,5-a]pyrazine-3-carboxylic acid ethyl ester], the IC50 fell in the range of 300 to 3000 nM. `CN1CCOc2cc(-c3nccn4nc(Nc5ccc6c(c5)NC(=O)C6(C)C)nc34)cnc21` [E144, 3,3-dimethyl-6-[8-(4-methyl-3,4-dihydro-2H-pyrido[3,2-b][1,4]oxazin-7-yl)-[1,2,4]triazolo[1,5-a]pyrazin-2-ylamino]-1,3-dihydro-indol-2-one] returned a concentration for half-maximal inhibition (IC50) of less than 100 nM. `CC1(C)CCNc2cc(Nc3nc4c(N5CCN6C(=O)CNC(=O)C6C5)nccn4n3)ccc21` (centres unmarked) [E154, 8-[2-(4,4-dimethyl-1,2,3,4-tetrahydro-quinolin-7-ylamino)-[1,2,4]triazolo[1,5-a]pyrazin-8-yl]-hexahydro-pyrazino[1,2-a]pyrazine-1,4-dione] gave an IC50 of less than 100 nM. In the case of `CC1(C)CCCc2ccc(-c3nccn4nc(Nc5ccc6c(c5)NC(=O)C6(C)C)nc34)cc21` [E146, 6-[8-(8,8-dimethyl-5,6,7,8-tetrahydro-naphthalen-2-yl)-[1,2,4]triazolo[1,5-a]pyrazin-2-ylamino]-3,3-dimethyl-1,3-dihydro-indol-2-one], the IC50 lay within 300 to 3000 nM. Take `COc1ccc(Nc2nc3c(-c4ccccc4-c4ccccc4)nccn3n2)cc1` [C1, (8-Biphenyl-2-yl-[1,2,4]triazolo[1,5-a]pyrazin-2-yl)-(4-methoxy-phenyl)-amine]: the IC50 lay in the range of 3000 to 50000 nM. Then `N#Cc1ccc(Nc2nc3c(-c4ccccc4-c4ccccc4)nccn3n2)cc1O` [C35, 4-(8-Biphenyl-2-yl-[1,2,4]triazolo[1,5-a]pyrazin-2-ylamino)-2-hydroxybenzonitrile], with 3000 to 50000 nM; and `CN(c1cccc(C(N)=O)c1)c1nccn2nc(Nc3ccc4c(c3)NC(=O)C4(C)C)nc12` [E151, 3-{[2-(3,3-dimethyl-2-oxo-2,3-dihydro-1H-indol-6-ylamino)-[1,2,4]triazolo[1,5-a]pyrazin-8-yl]-methyl-amino}-benzamide], with 300 to 3000 nM; and `Cn1cc(-c2nccn3nc(Nc4ccc5c(c4)NS(=O)(=O)C5)nc23)cn1` [E23, (2,2-dioxo-2,3-dihydro-1H-2I6-benzo[c]isothiazol-6-yl)-[8-(1-methyl-1H-pyrazol-4-yl)-[1,2,4]triazolo[1,5-a]pyrazin-2-yl]-amine], with 100 to 300 nM. The compound `CC1(C)C(=O)Nc2cc(Nc3nc4c(N5C[C@@H]6C[C@H]5CN6)nccn4n3)ccc21` [C89, 6-[(1S,4S)-8-(2,5-diaza-bicyclo[2.2.1]hept-2-yl)-[1,2,4]triazolo[1,5-a]pyrazin-2-ylamino]-3,3-dimethyl-1,3-dihydro-indol-2-one] gave a concentration for half-maximal inhibition (IC50) of 300 to 3000 nM. The compound `CC1(C)C(=O)Nc2cc(Nc3nc4c(N5CCCCCC5)nccn4n3)ccc21` [E57, 6-(8-azepan-1-yl-[1,2,4]triazolo[1,5-a]pyrazin-2-ylamino)-3,3-dimethyl-1,3-dihydro-indol-2-one] came in with an IC50 of less than 100 nM. Then `CC1(C)C(=O)Nc2cc(Nc3nc4c(OC5CCNC5)nccn4n3)ccc21` (centres unmarked) [E123, 3,3-dimethyl-6-[8-(pyrrolidin-3-yloxy)-[1,2,4]triazolo[1,5-a]pyrazin-2-ylamino]-1,3-dihydro-indol-2-one], with 3000 to 50000 nM; and `CC1(C)C(=O)Nc2cc(Nc3nc4c(NCC5CCCNC5)nccn4n3)ccc21` (centres unmarked) [E79, 3,3-dimethyl-6-{8-[(piperidin-3-ylmethyl)-amino]-[1,2,4]triazolo[1,5-a]pyrazin-2-ylamino}-1,3-dihydro-indol-2-one], with 300 to 3000 nM.

Compound `CC1(C)C(=O)Nc2cc(Nc3nc4c(N[C@H]5C[C@@H](N)C5)nccn4n3)ccc21` [C98, 6-[8-(cis-3-amino-cyclobutylamino)-[1,2,4]triazolo[1,5-a]pyrazin-2-ylamino]-3,3-dimethyl-1,3-dihydro-indol-2-one] had an IC50 of less than 100 nM. The compound `CC1(C(N)=O)CCN(c2nccn3nc(Nc4ccc5c(c4)NC(=O)C5(C)C)nc23)C1` (centres unmarked) [E75, 1-[2-(3,3-dimethyl-2-oxo-2,3-dihydro-1H-indol-6-ylamino)-[1,2,4]triazolo[1,5-a]pyrazin-8-yl]-3-methyl-pyrrolidine-3-carboxylic acid amide] gave a 50% inhibitory concentration (IC50) of less than 100 nM. For `CC1(C)C(=O)Nc2cc(Nc3nc4c(N5C6CCC5COC6)nccn4n3)ccc21` [C96, 3,3-dimethyl-6-[8-(3-oxa-8-aza-bicyclo[3.2.1 l]oct-8-yl)-[1,2,4]triazolo[1,5-a]pyrazin-2-ylamino]-1,3-dihydro-indol-2-one], the IC50 was in the range of 100 to 300 nM.
